# “Also recorded” adds a separate entry of the source. Where no end group is shown, it is not given here.
# Experiments:
# U937 cells [1] = test: BODIPY-NaD1 binding to viable and permeabilised U937 cells (flow cytometry, 7AAD); assay type: cell-based, human; conditions: 10 μM, 37° C., 30 min
# From the text: The percentage of cells in each population (boxed) is indicated.
# U937 and PC3 cells = test: Subcellular localisation of BODIPY-NaD1 by CLSM; assay type: cell-based, human; conditions: PI present, 12 minutes
# Method: FIG. 2B is a series of micrographs examining the subcellular localisation of BODIPY-NaD1 in U937 and PC3 cells. U937 cells immobilised onto 10% poly-L-lysine coverslips or PC3 cells cultured as adherent monolayers on coverslips, were treated with […] BODIPY-NaD1 in the presence of 1 μg/ml PI for 12 minutes and cells imaged by CLSM. Scale bars represent 10 μm.
# Live imaging was performed on a Zeiss LSM-510 confocal microscope using a 40× oil immersion objective in a 37° C./5% CO2 atmosphere. Adherent cells were cultured on coverslips prior to imaging while non-adherent cells were immobilized onto 10% poly-L-lysine-coated coverslips. All cell types were prepared for imaging in RPMI medium containing 0.1% BSA and […] PI. […] In certain experiments, cells were either, stained with PKH67 (Sigma-Aldrich) or transfected with plasmid construct for free GFP or GFP-PH(PLCδ) using Lipofectamine™ 2000 Reagent (Invitrogen) as per manufacturer's instructions prior to imaging. Transmission electron microscopy (TEM) imaging was performed according to a previously described procedure (Adda et al. 2009).
# U937 cells [2] = test: PI uptake membrane permeabilisation assay (flow cytometry); assay type: cell-based, human; conditions: 30 minutes at 37° C.
# Method: FIG. 5B is a graphical representation showing the effect of rNaD1, rNaD1(D2L4A), or rNaD1(D2L5) on the permeabilisation of U937 cells. Cells were incubated with 10 μM of each defensin for 30 minutes at 37° C. upon which 1 μg/ml PI propidium iodide (PI) was added. The number of cells that stained positively for PI was determined by flow cytometry.
# Cells were incubated with 10 μM of each defensin for 30 minutes at 37° C. upon which 1 μg/ml PI propidium iodide (PI) was added. The number of cells that stained positively for PI was determined by flow cytometry.
# Cells were incubated with 5 μM of each defensin for 30 minutes at 37° C. upon which […] PI propidium iodide (PI) was added. The number of cells that stained positively for PI was determined by flow cytometry.
# Unless otherwise stated, cells are re-suspended at a cell concentration of 4×10^5 cells/mL in complete culture RPMI-1640 medium supplemented with 10% FBS, 100 μ/mL penicillin and 100 μg/mL streptomycin, and are added to either a V-bottom 96-well plate or microfuge tubes. Cells are kept at 37° C., unless otherwise stated, during protein addition (5 μL) at various concentrations or the set concentration of 10 μM. Typically, cells are mixed with the heterogeneous defensin of interest and are incubated at 37° C. for 30 min. In certain experiments, cells are also incubated at either 4° C. or 37° C. for 2-60 min prior to flow cytometry analysis. Cells are added to an equal volume of complete culture medium containing 2 μg/mL propidium iodide (PI, Annexin V-FITC Apoptosis Detection Kit, Invitrogen) and are analysed immediately by flow cytometry using a FACSCanto cell sorter (Becton Dickson, Fanklin Lakes, N.J.) and Cell Quest Pro Software (Becton Dickson). Typically, 5000-10000 events per sample are collected and the resultant data is analysed using FlowJo software (Tree Star, Ashland, Oreg.). Cells are gated appropriately based on forward scatter (FSC) and side scatter (SSC), with the viable cells is determined by their ability to exclude PI. […]
# [3] = Cross-linking (BS3) study of lipid-mediated oligomerisation with PA; conditions: 0.5 mM PA, 30 min room temperature, SDS-PAGE, immunoblot
# Method: (§1) Molecular weight markers are indicated.
# (§2) Protein samples at 1 mg ml^−1 (2.5 μl) were incubated with 0.5 mM PIP2 or PA (2.5 μl) at room temperature for 30 min. […] Samples were reduced and denatured, and subjected to SDS-PAGE.
# tumour cells = conditions: as disclosed in PCT/AU2011/000760 and U.S. Ser. No. 13/166,960; cited from earlier work
# [4] = Cross-linking (BS3) study of lipid-mediated oligomerisation with PIP2; conditions: 0.5 mM PIP2, 30 min room temperature, SDS-PAGE, immunoblot
# Method: as §1, §2
# [5] = as described in PCT/AU2011/000760 and U.S. Ser. No. 13/166,960; cited from earlier work
# [6] = Lipid binding assay on Echelon membrane lipid strips; conditions: anti-NaD1 antibody detection, densitometry
# From the text: FIG. 5C is an immunoblot depicting the lipid binding profile of rNaD1, rNaD1(D2L4A), or rNaD1(D2L5). Echelon™ membrane lipid strips were probed with the defensins and binding detected with a rabbit anti-NaD1 antibody followed by a horseradish peroxidase (HRP) conjugated donkey anti-rabbit IgG antibody.
# Data is the mean of three replicate experiments±SEM.
# Echelon™ membrane lipid strips were probed with the defensins and binding was detected with a rabbit anti-NaD1 antibody followed by a horseradish peroxidase (HRP) conjugated donkey anti-rabbit IgG antibody.
# Membrane Lipid Strips™, PIP Strips™ and Sphingo Strips™ (Echelon Biosciences, Salt Lake City, Utah) were incubated with PBS/3% BSA for 1-2 h at RT to block non-specific binding. […] Membrane-bound protein was detected by probing the membrane strips with a rabbit anti-NaD1 polyclonal antibody (diluted 1:2000 with PBS/1% BSA) for 1 h at 4° C., followed by a HRP-conjugated donkey anti-rabbit IgG antibody (diluted 1:2000 with PBS/1% BSA) for 1 h at 4° C. After each antibody incubation, the membrane strips were washed extensively for 60 min at RT with PBS/0.1% Tween-20. Chemiluminescence was detected using the enhanced chemiluminescence (ECL) western blotting reagent (GE Healthcare BioSciences, NSW Australia) and exposed to Hyperfilm (GE Healthcare BioSciences, NSW, Australia) and developed using an Xomat (All-Pro-Imaging). […]
# [7] = target: the molecule itself; test: BS3 cross-linking in solution, SDS-PAGE and immunoblot; NaD2 was also efficiently multimerised by PA and not by PIP2
# Method: FIG. 4B is an immunoblot depicting the lipid-mediated oligomerisation of the class II defensins NaD1 and TPP3, and the class I defensin NaD2. Each of the defensins at 250 ng/ml were incubated with 0.5 mM PIP2 or PA at room temperature for 30 minutes and samples then treated with the cross-linker bis[sulfosuccinimidyl] suberate (BS³) at 12.5 mM for a further 30 minutes, Samples were reduced and denatured, separated by SDS-PAGE, and examined by immunoblotting with an anti-NaD1 (NaD1 and TPP3) or anti-NaD2 (NaD2) antibody. Molecular weight markers are indicated.
molecule,measurement,setting,value
"BODIPY-NaD1: BODIPY-labelled NaD1 (RECKTESNTFPGICITKPPCRKACISEKFTDGHCSKILRRCLCTKPC; cysteine pairing not given here; also: BODIPY label (position not given here); UniProt Q8GTM0 26-72, looked up)",binding to U937 cells,"U937 cells [1]; 7AAD, flow cytometry",bound to both viable (7AAD negative) and permeabilised (7AAD positive) U937 cells
same,membrane permeabilisation of U937 (7AAD),U937 cells [1]; compared with unlabelled NaD1,comparable level to unlabelled NaD1
same,subcellular localisation on permeabilised tumor cells,U937 and PC3 cells,"accumulation of BODIPY-NaD1 at the membrane bleb(s), cytoplasm, nucleolus and possibly at certain cytoplasmic organelles"
"K36E: NaD1 mutant, loop 5 residue K36 replaced with glutamic acid (RECKTESNTFPGICITKPPCRKACISEKFTDGHCSEILRRCLCTKPC; UniProt Q8GTM0 26-72, looked up, variant K36E)",permeabilisation of U937 cells (cells stained positively for PI),U937 cells [2]; 5 μM of each defensin,greatly reduced ability to permeabilise U937 cells
"R40E: NaD1 mutant, loop 5 residue R40 replaced with glutamic acid (RECKTESNTFPGICITKPPCRKACISEKFTDGHCSKILRECLCTKPC; UniProt Q8GTM0 26-72, looked up, variant R40E)",permeabilisation of U937 cells (cells stained positively for PI),U937 cells [2]; 5 μM of each defensin,greatly reduced ability to permeabilise U937 cells
RTCESQSHRFKGPCARDSNCATVCLTEGFSGGDCRGFRRRCFCTRPC (listed as Nicotiana alata) [NaD2],multimerisation (oligomer formation) mediated by PA,[3],forms oligomers with PA; also recorded: efficiently multimerised by PA
same,tumour cell killing,tumour cells,does not kill tumour cells
same,multimerisation (oligomer formation) mediated by PIP2,[4],not PIP2
same,lipid binding preference / ligand,[5],preferentially binds PA over PIP2; also recorded: does not bind PIP2
"rNaD1: NaD1 purified from P. pastoris (recombinant NaD1) (RECKTESNTFPGICITKPPCRKACISEKFTDGHCSKILRRCLCTKPC; recombinant, Pichia pastoris; UniProt Q8GTM0 26-72, looked up)",lipid binding profile (lipid bound most strongly / preferred),[6],bound most strongly to PIP2
same,permeabilisation of U937 cells (cells stained positively for PI),U937 cells [2]; 10 μM of each defensin,permeabilised U937 cells
RTCESQSHRFKGPCARDSNCATVCLTEGFSGGDCRGFRRRCFCTRPC (other) [NaD2 (Class I plant defensin)],binding result,[7],binds
